The numbers were not newly measured in PubChem BioAssay AID1259409 (Chemical Carcinogenesis Research Information System (CCRIS), 2018), which cites them from elsewhere.

Each structure is given as a SMILES string.

The test system of this data set is rodent chemically induced tumor inhibition, incidence and multiplicity. Nature of the data set: CCRIS tumor inhibitor studies.

Regarding `CC(C(=O)O)c1ccc(-c2ccccc2)c(F)c1` (stereo not drawn), the “tumour outcome (control, treated, inhibition, significance)” value by setting is: (Carcinogen: N-METHYL-N-NITROSOUREA, 684-93-5, Dose [Inhibitor]: 31.25 MG/KG DIET DAILY STARTING 1 WK AFTER CARCINOGEN ADMINISTRATION AND CONTINUING THROUGH THE END OF THE STUDY (STUDY, Route [Inhibitor]: ORAL, Species: RAT, Strain/Sex: SPRAGUE-DAWLEY/FEMALE, Target Tissue: Type of Lesion: MAMMARY GLAND: CARCINOMA, Dose [Carcinogen]: 25 MG/KG BW ONCE, Promoter: NONE USED) 91%, 60%, 34%, p<0.05; (Carcinogen: N-METHYL-N-NITROSOUREA, 684-93-5, Dose [Inhibitor]: 31.25 MG/KG DIET DAILY STARTING 1 WK AFTER CARCINOGEN ADMINISTRATION AND CONTINUING THROUGH THE END OF THE STUDY (STUDY, Route [Inhibitor]: ORAL, Species: RAT, Strain/Sex: SPRAGUE-DAWLEY/FEMALE, Target Tissue: Type of Lesion: MAMMARY GLAND: CARCINOMA, Dose [Carcinogen]: 50 MG/KG BW ONCE, Promoter: NONE USED) 100%, 100%, 0%, not significant; (Carcinogen: N-METHYL-N-NITROSOUREA, 684-93-5, Dose [Inhibitor]: 31.25 MG/KG IN DIET STARTING 1 WK AFTER CARCINOGEN DOSE AND CONTINUING THROUGH THE END OF THE STUDY (STUDY DURATION: 180, Route [Inhibitor]: ORAL, Species: RAT, Strain/Sex: SPRAGUE-DAWLEY/FEMALE, Target Tissue: Type of Lesion: MAMMARY GLAND: CARCINOMA, Dose [Carcinogen]: 25 MG/KG BW ONCE, Promoter: NONE USED) 91%, 60%, 34%, p<0.05; (Carcinogen: N-METHYL-N-NITROSOUREA, 684-93-5, Dose [Inhibitor]: 31.25 MG/KG IN DIET STARTING 1 WK AFTER CARCINOGEN DOSE AND CONTINUING THROUGH THE END OF THE STUDY (STUDY DURATION: 180, Route [Inhibitor]: ORAL, Species: RAT, Strain/Sex: SPRAGUE-DAWLEY/FEMALE, Target Tissue: Type of Lesion: MAMMARY GLAND: CARCINOMA, Dose [Carcinogen]: 50 MG/KG BW ONCE, Promoter: NONE USED) 100%, 100%, 0%, not significant; (Carcinogen: N-METHYL-N-NITROSOUREA, 684-93-5, Dose [Inhibitor]: 62.5 MG/KG DIET DAILY STARTING 1 WK AFTER CARCINOGEN ADMINISTRATION AND CONTINUING THROUGH THE END OF THE STUDY (STUDY D, Route [Inhibitor]: ORAL, Species: RAT, Strain/Sex: SPRAGUE-DAWLEY/FEMALE, Target Tissue: Type of Lesion: MAMMARY GLAND: CARCINOMA, Dose [Carcinogen]: 25 MG/KG BW ONCE, Promoter: NONE USED) 91%, 68%, 25%, p<0.1; (Carcinogen: N-METHYL-N-NITROSOUREA, 684-93-5, Dose [Inhibitor]: 62.5 MG/KG DIET DAILY STARTING 1 WK AFTER CARCINOGEN ADMINISTRATION AND CONTINUING THROUGH THE END OF THE STUDY (STUDY D, Route [Inhibitor]: ORAL, Species: RAT, Strain/Sex: SPRAGUE-DAWLEY/FEMALE, Target Tissue: Type of Lesion: MAMMARY GLAND: CARCINOMA, Dose [Carcinogen]: 50 MG/KG BW ONCE, Promoter: NONE USED) 100%, 100%), 0%, not significant. Besides, the “tumour outcome (control, treated, inhibition, significance)” value (Carcinogen: N-METHYL-N-NITROSOUREA, 684-93-5, Dose [Inhibitor]: 62.5 MG/KG IN DIET STARTING 1 WK AFTER CARCINOGEN DOSE AND CONTINUING THROUGH THE END OF THE STUDY (STUDY DURATION: 180, Route [Inhibitor]: ORAL, Species: RAT, Strain/Sex: SPRAGUE-DAWLEY/FEMALE, Target Tissue: Type of Lesion: MAMMARY GLAND: CARCINOMA, Dose [Carcinogen]: 25 MG/KG BW ONCE, Promoter: NONE USED) was 91%, 68%, 25%, p<0.1 and the “tumour outcome (control, treated, inhibition, significance)” value (Carcinogen: N-METHYL-N-NITROSOUREA, 684-93-5, Dose [Inhibitor]: 62.5 MG/KG IN DIET STARTING 1 WK AFTER CARCINOGEN DOSE AND CONTINUING THROUGH THE END OF THE STUDY (STUDY DURATION: 180, Route [Inhibitor]: ORAL, Species: RAT, Strain/Sex: SPRAGUE-DAWLEY/FEMALE, Target Tissue: Type of Lesion: MAMMARY GLAND: CARCINOMA, Dose [Carcinogen]: 50 MG/KG BW ONCE, Promoter: NONE USED) was 100%, 100%, 0%, not significant.

On to `CC(C)=CCOc1c2occc2cc2ccc(=O)oc12`, for which the “tumour outcome (control, treated, inhibition, significance)” value runs as follows: (Carcinogen: 7,12-DIMETHYLBENZ[A]ANTHRACENE, 57-97-6, Dose [Inhibitor]: 0, 400 NMOL 1/WK FOR 45 WK APPLIED 5 MIN PRIOR TO EACH CARCINOGEN DOSE (STUDY DURATION: 45 WK), Route [Inhibitor]: DERMAL, Species: MOUSE, Strain/Sex: SENCAR, Target Tissue: Type of Lesion: SKIN: PAPILLOMA, Dose [Carcinogen]: 50 NMOL 1/WK FOR 45 WK, Promoter: NONE USED) 97%, 60%, 38%, p<0.05; (Carcinogen: 7,12-DIMETHYLBENZ[A]ANTHRACENE, 57-97-6, Dose [Inhibitor]: 0, 400 NMOL ONCE APPLIED 5 MIN PRIOR TO CARCINOGEN DOSE (STUDY DURATION: 25 WK), Route [Inhibitor]: DERMAL, Species: MOUSE, Strain/Sex: SENCAR, Target Tissue: Type of Lesion: SKIN: PAPILLOMA, Dose [Carcinogen]: 10 NMOL ONCE, Promoter: 12-O-TETRADECANOYLPHORBOL-13-ACETATE, 16561-29-8) 93%, 93%, 0%, not significant; (Carcinogen: 7,12-DIMETHYLBENZ[A]ANTHRACENE, 57-97-6, Dose [Inhibitor]: 0, 800 NMOL ONCE APPLIED 5 MIN PRIOR TO CARCINOGEN DOSE (STUDY DURATION: 25 WK), Route [Inhibitor]: DERMAL, Species: MOUSE, Strain/Sex: SENCAR, Target Tissue: Type of Lesion: SKIN: PAPILLOMA, Dose [Carcinogen]: 200 NMOL ONCE, Promoter: 12-O-TETRADECANOYLPHORBOL-13-ACETATE, 16561-29-8) 93%, 75%, 19%, not significant; (Carcinogen: 7-12-DIMETHYLBENZ[A]ANTHRACENE, 57-97-6, Dose [Inhibitor]: 0, 400 NMOL 1/WK FOR 45 WK APPLIED 5 MIN PRIOR TO EACH CARCINOGEN DOSE (STUDY DURATION: 45 WK), Route [Inhibitor]: DERMAL, Species: MOUSE, Strain/Sex: SENCAR, Target Tissue: Type of Lesion: SKIN: CARCINOMA, Dose [Carcinogen]: 50 NMOL 1/WK FOR 45 WK) 90%, 53%, 41%, not calculated; (Carcinogen: 7-12-DIMETHYLBENZ[A]ANTHRACENE, 57-97-6, Dose [Inhibitor]: 0, 800 NMOL 1/WK FOR 45 WK APPLIED 5 MIN PRIOR TO EACH CARCINOGEN DOSE (STUDY DURATION: 45 WK), Route [Inhibitor]: DERMAL, Species: MOUSE, Strain/Sex: SENCAR, Target Tissue: Type of Lesion: SKIN: CARCINOMA, Dose [Carcinogen]: 50 NMOL 1/WK FOR 45 WK) 90%, 37%, 59%, not calculated; (Carcinogen: 7-12-DIMETHYLBENZ[A]ANTHRACENE, 57-97-6, Dose [Inhibitor]: 0, 800 NMOL 1/WK FOR 45 WK APPLIED 5 MIN PRIOR TO EACH CARCINOGEN DOSE (STUDY DURATION: 45 WK), Route [Inhibitor]: DERMAL, Species: MOUSE, Strain/Sex: SENCAR, Target Tissue: Type of Lesion: SKIN: PAPILLOMA, Dose [Carcinogen]: 50 NMOL 1/WK FOR 45 WK) 97%, 53%, 45%, p<0.05. In addition, the “tumour outcome (control, treated, inhibition, significance)” value is 92%, 92%, 0%, not significant (Carcinogen: BENZO[A]PYRENE, 50-32-8, Dose [Inhibitor]: 0, 800 NMOL ONCE APPLIED 5 MIN PRIOR TO CARCINOGEN DOSE (STUDY DURATION: 25 WK), Route [Inhibitor]: DERMAL, Species: MOUSE, Strain/Sex: SENCAR, Target Tissue: Type of Lesion: SKIN: PAPILLOMA, Dose [Carcinogen]: 200 NMOL ONCE, Promoter: 12-O-TETRADECANOYLPHORBOL-13-ACETATE, 16561-29-8) and 92%, 85%, 8%, not significant (Carcinogen: BENZO[A]PYRENE, 50-32-8, Dose [Inhibitor]: 0, 1600 NMOL ONCE APPLIED 5 MIN PRIOR TO CARCINOGEN DOSE (STUDY DURATION: 25 WK), Route [Inhibitor]: DERMAL, Species: MOUSE, Strain/Sex: SENCAR, Target Tissue: Type of Lesion: SKIN: PAPILLOMA, Dose [Carcinogen]: 200 NMOL ONCE, Promoter: 12-O-TETRADECANOYLPHORBOL-13-ACETATE, 16561-29-8).

Regarding `CC/C=C\C/C=C\C/C=C\C/C=C\C/C=C\C/C=C\CCC(=O)O`, the “tumour outcome (control, treated, inhibition, significance)” value (Carcinogen: 7,12-DIMETHYLBENZ[A]ANTHRACENE, 57-97-6, Dose [Inhibitor]: 0, 0.5 ML 2/WK FOR 19 WK BEGINNING 1 WK POST CARCINOGEN DOSE ADMINISTERED TO RATS FED HIGH-FAT (20% CORN OIL) DIETS (STU, Route [Inhibitor]: GAVAGE, Species: RAT, Strain/Sex: SPRAGUE-DAWLEY/FEMALE, Target Tissue: Type of Lesion: MAMMARY GLAND: ADENOCARCINOMA, Dose [Carcinogen]: 5 MG ONCE AT 50 D OF AGE, Promoter: NONE USED) is recorded as 24/30 (80%), 6/24 (25%), 69%, p<0.05.

For the compound `CCOC(=O)/C=C(/C=C/C=C(C)/C=C/c1c(C)cc(OC)c(C)c1C)C(F)(F)F`, where the note is “Carcinogen: 7,12-DIMETHYLBENZ[A]ANTHRACENE, 57-97-6, Dose [Inhibitor]: 140 NMOL IN 0.2 ML ACETONE 2/WK (D 1 AND D 4 OF EACH WK) 1 HR BEFORE EACH PROMOTER APPLICATION STARTING 14 D AFTER CARCI, Route [Inhibitor]: DERMAL, Species: MOUSE, Strain/Sex: CD-1/FEMALE, Target Tissue: Type of Lesion: SKIN: PAPILLOMA, Dose [Carcinogen]: 0.2 UMOL IN 0.2 ML ACETONE ONCE, Promoter: 12-O-TETRADECANOYLPHORBOL-13-ACETATE, 16561-29-8”, the “tumour outcome (control, treated, inhibition, significance)” value is 90%, 100%, -11%, not significant.
